Results reported in ChEMBL document CHEMBL1154323, “Bioactive scalaranes from the Thai sponge Hyrtios gumminae” (J Nat Prod, 2009).
Calls of active or inactive are those of the source. No cut-off for these calls is given here.

Experiments:
Type in all cases: functional, cell-based
[1] = Cytotoxicity against human HuCCa1 cells; settings: HuCC-A1
HeLa [2] = assay: Cytotoxicity against human HeLa cells
NCI-H69 [3] = assay: Cytotoxicity against human adriamycin resistant H69 cells
T47D [4] = assay: Cytotoxicity against human T47D cells
KB [5] = assay: Cytotoxicity against human KB cells
MDA-MB-231 [6] = assay: Cytotoxicity against human MDA-MB-231 cells
T47D [7] = assay: Cytotoxicity against human T47D cells >100 uM
NCI-H69 [8] = assay: Cytotoxicity against human adriamycin resistant H69 cells >100 uM
HuCC-A1 = assay: Cytotoxicity against human HuCCa1 cells at >100 uM
KB [9] = assay: Cytotoxicity against human KB cells >100 uM
MDA-MB-231 [10] = assay: Cytotoxicity against human MDA-MB-231 cells >100 uM
HeLa [11] = assay: Cytotoxicity against human HeLa cells >100 uM

With `CC1(C)CCC[C@]2(C)[C@H]3C[C@](C)(C=O)[C@@H](C[C@H](O)c4ccoc4)[C@]3(C)CC[C@@H]12` [HYRTIOSAL] the IC50 [1] was 9.1 µM, the IC50 (HeLa [2]) was 18 µM and the IC50 (NCI-H69 [3]) was 31 µM. It also gave an IC50 (T47D [4]) of 9.1 µM, an IC50 (KB [5]) of 7.8 µM and an IC50 (MDA-MB-231 [6]) of 5.4 µM.

`CC1(C)CCC[C@]2(C)[C@H]3C[C@@H](O)[C@]4(C)C5=C(C(=O)O[C@H]5O)[C@H](O)C[C@H]4[C@]3(C)CC[C@@H]12` [HYRTIOLIDE] showed an IC50 [1] of 57 µM, an IC50 (HeLa [2]) of 22 µM and an IC50 (T47D [4]) of 34 µM. It also gave an IC50 (KB [5]) of 12 µM and an IC50 (MDA-MB-231 [6]) of 26 µM.

With `CC1(C)CCC[C@]2(C)[C@H]3C[C@@H](O)[C@]4(C)C5=C(CC[C@H]4[C@]3(C)CC[C@@H]12)COC5=O` the Activity (T47D [7]) was “inactive”, the Activity (NCI-H69 [8]) was “inactive” and the Activity (HuCC-A1) was “inactive”. The Activity (KB [9]) was “inactive”, the Activity (MDA-MB-231 [10]) was “inactive” and the Activity (HeLa [11]) was “inactive”.

With `CC1(C)CCC[C@]2(C)[C@H]3C[C@@H](O)[C@]4(C)[C@H]5COC(=O)C5=CC[C@H]4[C@]3(C)CC[C@@H]12` the IC50 [1] was 42 µM, the IC50 (HeLa [2]) was 23 µM and the IC50 (NCI-H69 [3]) was 57 µM. For the same compound, the IC50 (T47D [4]) was 5.2 µM, the IC50 (KB [5]) was 7 µM and the IC50 (MDA-MB-231 [6]) was 5.9 µM.

With `CC(C)CCC[C@@H](C)[C@H]1CC[C@H]2[C@@H]3CC=C4C[C@@H](O)CC[C@]4(C)[C@H]3CC[C@]12C` the Activity (T47D [7]) was “inactive”, the Activity (NCI-H69 [8]) was “inactive” and the Activity (HuCC-A1) was “inactive”. The Activity (KB [9]) was “inactive”, the Activity (MDA-MB-231 [10]) was “inactive” and the Activity (HeLa [11]) was “inactive”.

With `COc1cc([C@@H]2c3cc4c(cc3[C@@H](O[C@@H]3O[C@@H]5CO[C@@H](C)O[C@H]5[C@H](O)[C@H]3O)[C@H]3COC(=O)[C@H]23)OCO4)cc(OC)c1O` [ETOPOSIDE] the IC50 [1] was 5.1 µM, the IC50 (HeLa [2]) was 0.4 µM and the IC50 (NCI-H69 [3]) was 46 µM. For the same compound, the IC50 (T47D [4]) was 0.1 µM, the IC50 (KB [5]) was 0.5 µM and the IC50 (MDA-MB-231 [6]) was 0.3 µM.

With `CO[C@@H]1c2occc2[C@@H](O)C[C@H]2[C@]3(C)CC[C@H]4C(C)(C)CCC[C@]4(C)[C@H]3C[C@@]21C` [SIMILAN A] the IC50 [1] was 90 µM, the IC50 (HeLa [2]) was 125 µM and the IC50 (NCI-H69 [3]) was > 125 µM. For the same compound, the IC50 (T47D [4]) was 70 µM, the IC50 (KB [5]) was 75 µM and the IC50 (MDA-MB-231 [6]) was 58 µM.

Work on `CC(=O)O[C@H]1C[C@H]2[C@]3(C)CC[C@H]4C(C)(C)CCC[C@]4(C)[C@H]3C[C@@H](O)[C@]2(C)c2cocc21` [SCALARAFURAN] yielded an IC50 [1] of 49 µM, an IC50 (HeLa [2]) of 63 µM and an IC50 (NCI-H69 [3]) of 51 µM. The IC50 (T47D [4]) was 28 µM, the IC50 (KB [5]) was 58 µM and the IC50 (MDA-MB-231 [6]) was 14 µM.
